Key:
Experiment in all cases: relative viability (nuclei count vs DMSO), 5 days (fraction); higher = more cells survive
[1] = compound: C1CCC(CC1)N(CCNCCC2=C3C(=C(C=C2)O)NC(=O)CO3)C(=O)CCNCCC4=CC(=C(C=C4)Cl)Cl [AZ505] + O=C(CCCCCCC(=O)Nc1ccccc1)NO [Vorinostat] (partner 1 µM)
Summary of the method: (§1)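 Lung cancer cell lines in 1536-well plates got either a single drug or a fixed anchor-drug dose together with five library-drug doses (not always all listed) in √10 steps, by pin tool, on the day after seeding. Nuclei were counted after 5 days, and relative viability is the treated-to-vehicle ratio of nuclei counts. Values are medians of duplicate plates.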

[2] = compound: Cn1c(=O)n(-c2ccc(C(C)(C)C#N)cc2)c2c3cc(-c4cnc5ccccc5c4)ccc3ncc21 [Dactolisib] + CCNC(=O)c1noc(-c2cc(C(C)C)c(O)cc2O)c1-c1ccc(CN2CCOCC2)cc1 [Luminespib] (partner 0.01 µM)
Summary of the method: as §1

[3] = compound: Cn1c(=O)n(-c2ccc(C(C)(C)C#N)cc2)c2c3cc(-c4cnc5ccccc5c4)ccc3ncc21 [Dactolisib] + Cc1cc(Nc2cc(N3CCN(C)CC3)nc(Sc3ccc(NC(=O)C4CC4)cc3)n2)n[nH]1 [Tozasertib] (partner 0.1 µM)
Summary of the method: as §1

[4] = compound: Cn1c(=O)n(-c2ccc(C(C)(C)C#N)cc2)c2c3cc(-c4cnc5ccccc5c4)ccc3ncc21 [Dactolisib] + O=C(c1cc(Cc2n[nH]c(=O)c3ccccc23)ccc1F)N1CCN(C(=O)C2CC2)CC1 [Olaparib] (partner 8 µM)
Summary of the method: as §1

Row | Cell Line | relative viability ([1]; first compound 0.08 µM) | relative viability ([1]; first compound 0.253 µM) | relative viability ([1]; first compound 0.8 µM) | relative viability ([1]; first compound 2.53 µM) | relative viability ([1]; first compound 8 µM) | relative viability ([2]; first compound 0.002 µM) | relative viability ([2]; first compound 0.006325 µM) | relative viability ([2]; first compound 0.02 µM) | relative viability ([2]; first compound 0.06325 µM) | relative viability ([2]; first compound 0.2 µM) | relative viability ([3]; first compound 0.002 µM) | relative viability ([3]; first compound 0.006325 µM) | relative viability ([3]; first compound 0.02 µM) | relative viability ([3]; first compound 0.06325 µM) | relative viability ([3]; first compound 0.2 µM) | relative viability ([4]; first compound 0.002 µM) | relative viability ([4]; first compound 0.006325 µM) | relative viability ([4]; first compound 0.02 µM) | relative viability ([4]; first compound 0.06325 µM) | relative viability ([4]; first compound 0.2 µM)
1 | RERF-LC-KJ | 0.616 | 0.689 | 0.564 | 0.672 | 0.669 | 1.3 | 1.29 | 0.859 | 0.326 | 0.415 | 0.535 | 0.551 | 0.599 | 0.279 | 0.397 | 1.06 | 0.893 | 0.829 | 0.385 | 0.403
2 | NCI-H1650 | 0.54 | 0.602 | 0.605 | 0.725 | 0.457 | 0.19 | 0.185 | 0.192 | 0.206 | 0.202 | 0.397 | 0.476 | 0.425 | 0.367 | 0.302 | 1.03 | 0.704 | 0.722 | 0.498 | 0.568
3 | BEN | 0.494 | 0.603 | 0.54 | 0.592 | 0.591 | 0.382 | 0.234 | 0.366 | 0.25 | 0.268 | 0.525 | 0.553 | 0.53 | 0.49 | 0.42 | 0.988 | 0.939 | 1.08 | 0.635 | 0.478
4 | EMC-BAC-2 | 0.486 | – | 0.512 | 0.547 | 0.722 | 1.15 | 1.14 | 1.1 | 0.875 | 0.556 | 0.266 | 0.271 | 0.334 | 0.287 | 0.273 | 0.613 | 0.433 | 0.464 | 0.372 | 0.356
5 | LU99A | 0.545 | 0.533 | 0.506 | – | 0.504 | 0.257 | 0.228 | 0.29 | 0.202 | 0.192 | 0.265 | 0.257 | 0.283 | 0.224 | 0.185 | 0.208 | 0.232 | 0.216 | 0.181 | 0.172
6 | ABC-1 | 1.07 | – | 0.976 | 1.14 | 1.14 | 0.496 | 0.59 | – | 0.257 | 0.366 | 0.188 | 0.176 | 0.165 | 0.166 | 0.19 | 0.911 | 0.862 | 0.952 | 1.1 | 0.613
7 | NCI-H2170 | 0.659 | 0.851 | 0.749 | 0.859 | 0.823 | 0.512 | 0.805 | 0.722 | 0.435 | 0.195 | 0.753 | 0.735 | 0.62 | 0.511 | 0.252 | 0.535 | 0.533 | 0.601 | 0.389 | 0.255
8 | NCI-H1299 | – | – | – | – | – | – | – | – | – | – | – | – | – | – | – | 1.01 | 0.997 | 1.04 | 0.568 | 0.742
9 | EBC-1 | – | – | – | – | – | – | – | – | – | – | – | – | – | – | – | 0.809 | 0.645 | 0.648 | 0.19 | 0.176
10 | NCI-H2347 | 0.39 | 0.417 | 0.474 | 0.464 | 0.352 | 0.49 | 0.433 | 0.467 | 0.286 | 0.284 | 0.676 | 0.527 | 0.535 | 0.394 | 0.264 | 0.693 | 0.54 | 0.531 | 0.471 | 0.407
11 | NCI-H1993 | 0.689 | 0.741 | 0.994 | 0.884 | 0.977 | 0.752 | 0.738 | 0.637 | 0.442 | 0.488 | 0.584 | 0.581 | 0.504 | 0.495 | 0.502 | 1.29 | 0.865 | 0.827 | 0.432 | 0.37
12 | NCI-H322M | 0.824 | – | 0.888 | 0.837 | 0.882 | 0.36 | 0.741 | 0.612 | 0.4 | 0.323 | 0.386 | 0.46 | 0.414 | 0.412 | 0.37 | 0.752 | 0.789 | 0.774 | 0.719 | 0.674
13 | NCI-H838 | 0.674 | 0.73 | 0.67 | 0.737 | 0.787 | 0.285 | 0.377 | 0.317 | 0.174 | 0.159 | 0.249 | 0.295 | 0.254 | 0.208 | 0.199 | 0.924 | 0.657 | 0.43 | 0.273 | 0.208
14 | HARA | 0.547 | 0.522 | 0.457 | 0.471 | 0.541 | 0.829 | 0.462 | 0.62 | 0.314 | 0.121 | 0.103 | 0.116 | 0.103 | 0.112 | 0.0818 | 1.23 | 0.858 | 0.898 | 0.684 | 0.24
15 | NCI-H2087 | 0.596 | 0.903 | 0.592 | 0.691 | 0.913 | 0.281 | 0.164 | 0.146 | 0.128 | 0.121 | 0.328 | 0.248 | 0.243 | 0.176 | 0.192 | 0.719 | 0.474 | 0.631 | 0.197 | 0.243
16 | NCI-H1648 | – | 0.43 | 0.418 | 0.526 | 0.573 | – | – | – | – | – | 0.407 | 0.433 | 0.446 | 0.24 | 0.218 | 0.998 | 0.78 | 0.799 | 0.473 | 0.246
17 | NCI-H1792 | – | – | – | – | – | 0.259 | 0.403 | 0.404 | 0.142 | 0.11 | – | – | – | – | – | 0.427 | 0.319 | 0.394 | 0.135 | 0.101
18 | A549 | – | – | – | – | – | – | – | – | – | – | – | – | – | – | – | 0.286 | 0.302 | 0.244 | 0.122 | 0.0942
19 | NCI-H1563 | – | – | – | – | – | 0.535 | 0.532 | 0.511 | 0.47 | 0.507 | – | – | – | – | – | – | – | – | – | –
20 | HCC-78 | – | – | 0.444 | 0.597 | 0.508 | – | – | – | – | – | 0.457 | 0.418 | 0.414 | 0.361 | 0.284 | 0.856 | 0.94 | 0.669 | 0.452 | 0.336
21 | IA-LM | 0.878 | – | 0.933 | – | 1.17 | – | – | – | – | – | – | – | – | – | – | 0.85 | 0.729 | 0.783 | 0.348 | 0.738
22 | NCI-H1703 | – | – | – | – | – | – | – | – | – | – | – | – | – | – | – | – | 0.292 | 0.389 | 0.198 | 0.285
